Earlier results in patent US20040126415A1, “Dermal delivery of a water-soluble selective cyclooxygenase-2 inhibitor” (priority 2002, published 2004).

Key:
COX-1 = COX-1 (Homo sapiens, UniProt P23219)
COX-2 = target: T1, COX-2 (Homo sapiens, UniProt P35354)
T1 sequence (P35354 18-604): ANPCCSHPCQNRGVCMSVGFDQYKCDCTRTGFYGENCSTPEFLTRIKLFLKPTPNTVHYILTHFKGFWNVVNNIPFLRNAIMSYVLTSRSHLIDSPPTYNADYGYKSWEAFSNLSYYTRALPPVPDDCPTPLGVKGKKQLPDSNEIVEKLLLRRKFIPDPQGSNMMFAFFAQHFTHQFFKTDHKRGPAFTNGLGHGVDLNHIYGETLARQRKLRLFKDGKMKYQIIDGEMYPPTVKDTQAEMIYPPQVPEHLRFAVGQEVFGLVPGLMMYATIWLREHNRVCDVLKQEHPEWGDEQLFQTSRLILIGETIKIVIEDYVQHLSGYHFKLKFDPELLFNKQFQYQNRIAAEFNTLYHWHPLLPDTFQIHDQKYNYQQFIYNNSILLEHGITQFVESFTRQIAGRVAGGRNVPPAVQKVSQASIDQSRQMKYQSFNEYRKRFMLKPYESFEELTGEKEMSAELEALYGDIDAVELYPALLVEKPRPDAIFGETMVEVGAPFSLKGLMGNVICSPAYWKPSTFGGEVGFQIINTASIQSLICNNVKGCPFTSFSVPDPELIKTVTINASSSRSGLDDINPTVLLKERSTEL

Chain of COX-1 (P23219 24-599): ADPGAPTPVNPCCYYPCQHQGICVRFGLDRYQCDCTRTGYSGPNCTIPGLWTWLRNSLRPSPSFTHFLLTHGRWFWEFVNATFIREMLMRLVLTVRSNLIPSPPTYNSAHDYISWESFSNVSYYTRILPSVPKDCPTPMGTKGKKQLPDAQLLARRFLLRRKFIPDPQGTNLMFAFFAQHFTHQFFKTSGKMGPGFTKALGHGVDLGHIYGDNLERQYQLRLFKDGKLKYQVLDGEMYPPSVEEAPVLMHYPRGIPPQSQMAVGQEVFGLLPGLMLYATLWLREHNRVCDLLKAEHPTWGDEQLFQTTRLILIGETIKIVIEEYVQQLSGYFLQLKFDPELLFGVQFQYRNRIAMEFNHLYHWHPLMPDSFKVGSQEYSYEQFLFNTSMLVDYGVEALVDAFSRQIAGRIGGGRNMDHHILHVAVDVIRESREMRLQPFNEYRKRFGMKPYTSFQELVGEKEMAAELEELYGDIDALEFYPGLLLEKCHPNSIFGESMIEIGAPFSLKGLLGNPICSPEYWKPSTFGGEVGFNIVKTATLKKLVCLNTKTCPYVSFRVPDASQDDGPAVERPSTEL

SMILES	in vitro inhibitory activity against COX-1 (COX-1)	in vitro inhibitory activity against COX-2 (COX-2)
Cc1onc(-c2ccccc2)c1-c1ccc(S(N)(=O)=O)cc1 [valdecoxib, 4-[5-methyl-3-phenylisoxazol-4-yl]benzenesulfonamide]	weak inhibitor	
CCC(=O)NS(=O)(=O)c1ccc(-c2c(-c3ccccc3)noc2C)cc1 [Parecoxib, N-[[4-(5-methyl-3-phenylisoxazol-4-yl)phenyl]sulfonyl]propanamide]	weak in vitro inhibitory activity	weak in vitro inhibitory activity
